# Data from PubChem BioAssay AID248 (DTP/NCI, 2004).
# Several values for one entry are separate records, joined by “and”; a condition that tells them apart may be missing. Equal values may be shown once. Toxic doses and inconclusive results are not listed.
# System: L1210 leukemia ip in BDF1 mice, survival T/C
# Test: NCI In Vivo Anticancer Drug Screen. Data for tumor model L1210 Leukemia (intraperitoneal) in B6D2F1 (BDF1) mice
# Conditions: higher = longer survival
# Outline: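 Tumor was transplanted into mice, which were then dosed with test compound or vehicle alone. Survival was recorded for each group, and the treated figure was expressed relative to the control figure.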
compound,measurement,setting,value
COc1cc([C@@H]2c3cc4c(cc3[C@@H](OC3OC5COC(C)OC5C(O)C3O)[C@H]3COC(=O)[C@H]23)OCO4)cc(OC)c1O (stereo not given in full),T/C,"endpoint: mean survival time, dose: 1.8 mg/kg/injection, schedule: Q03HX016 (ip), vehicle: saline",292 % of control
same,T/C,"endpoint: mean survival time, dose: 1.8 mg/kg/injection, schedule: Q03HX024 (ip), vehicle: saline",315 % of control
same,T/C,"endpoint: mean survival time, dose: 2.0 mg/kg/injection, schedule: Q01DX009 (ip), vehicle: Klucel (hydroxypropylcellulose) (HPC)",161 % of control and 172 % of control
same,T/C,"endpoint: mean survival time, dose: 2.7 mg/kg/injection, schedule: Q03HX016 (ip), vehicle: saline",510 % of control
same,T/C,"endpoint: mean survival time, dose: 2.7 mg/kg/injection, schedule: Q03HX024 (ip), vehicle: saline",600 % of control
same,T/C,"endpoint: mean survival time, dose: 4.0 mg/kg/injection, schedule: Q01DX001 (sc), vehicle: Klucel (hydroxypropylcellulose) (HPC)",97 % of control
same,T/C,"endpoint: mean survival time, dose: 4.0 mg/kg/injection, schedule: Q01DX001 (sc), vehicle: clinical formulation",102 % of control
same,T/C,"endpoint: mean survival time, dose: 4.0 mg/kg/injection, schedule: Q01DX009 (ip), vehicle: Klucel (hydroxypropylcellulose) (HPC)",104 % of control and 196 % of control and 266 % of control
same,T/C,"endpoint: mean survival time, dose: 4.0 mg/kg/injection, schedule: Q01DX009 (sc), vehicle: clinical formulation",183 % of control
same,T/C,"endpoint: mean survival time, dose: 4.0 mg/kg/injection, schedule: Q03HX016 (ip), vehicle: saline",409 % of control
same,T/C,"endpoint: mean survival time, dose: 4.0 mg/kg/injection, schedule: Q03HX016 (oral), vehicle: Klucel (hydroxypropylcellulose) (HPC)",105 % of control
same,T/C,"endpoint: mean survival time, dose: 4.0 mg/kg/injection, schedule: Q03HX024 (ip), vehicle: saline",568 % of control
same,T/C,"endpoint: mean survival time, dose: 4.5 mg/kg/injection, schedule: Q03HX024 (ip), vehicle: saline",409 % of control
same,T/C,"endpoint: mean survival time, dose: 6.0 mg/kg/injection, schedule: Q03HX016 (ip), vehicle: saline",154 % of control
same,T/C,"endpoint: mean survival time, dose: 8.0 mg/kg/injection, schedule: Q01DX001 (sc), vehicle: Klucel (hydroxypropylcellulose) (HPC)",103 % of control
same,T/C,"endpoint: mean survival time, dose: 8.0 mg/kg/injection, schedule: Q01DX001 (sc), vehicle: clinical formulation",106 % of control
same,T/C,"endpoint: mean survival time, dose: 8.0 mg/kg/injection, schedule: Q01DX009 (sc), vehicle: clinical formulation",180 % of control
same,T/C,"endpoint: mean survival time, dose: 8.0 mg/kg/injection, schedule: Q03HX016 (oral), vehicle: Klucel (hydroxypropylcellulose) (HPC)",105 % of control
same,T/C,"endpoint: mean survival time, dose: 8.0 mg/kg/injection, schedule: Q04DX003 (ip), vehicle: Klucel (hydroxypropylcellulose) (HPC)",225 % of control
same,T/C,"endpoint: mean survival time, dose: 12.0 mg/kg/injection, schedule: Q03DX003 (ip), vehicle: saline",319 % of control
same,T/C,"endpoint: mean survival time, dose: 12.0 mg/kg/injection, schedule: Q04DX003 (ip), vehicle: saline",213 % of control
same,T/C,"endpoint: mean survival time, dose: 16.0 mg/kg/injection, schedule: Q01DX001 (sc), vehicle: Klucel (hydroxypropylcellulose) (HPC)",106 % of control
same,T/C,"endpoint: mean survival time, dose: 16.0 mg/kg/injection, schedule: Q01DX001 (sc), vehicle: clinical formulation",117 % of control
same,T/C,"endpoint: mean survival time, dose: 16.0 mg/kg/injection, schedule: Q01DX009 (sc), vehicle: Klucel (hydroxypropylcellulose) (HPC)",208 % of control
same,T/C,"endpoint: mean survival time, dose: 16.0 mg/kg/injection, schedule: Q01DX009 (sc), vehicle: clinical formulation",187 % of control
same,T/C,"endpoint: mean survival time, dose: 16.0 mg/kg/injection, schedule: Q03HX016 (oral), vehicle: Klucel (hydroxypropylcellulose) (HPC)",105 % of control
same,T/C,"endpoint: mean survival time, dose: 16.0 mg/kg/injection, schedule: Q08DX002 (ip), vehicle: Klucel (hydroxypropylcellulose) (HPC)",157 % of control
same,T/C,"endpoint: mean survival time, dose: 18.0 mg/kg/injection, schedule: Q03DX003 (ip), vehicle: saline",395 % of control
same,T/C,"endpoint: mean survival time, dose: 18.0 mg/kg/injection, schedule: Q04DX003 (ip), vehicle: saline",372 % of control
same,T/C,"endpoint: mean survival time, dose: 27.0 mg/kg/injection, schedule: Q03DX003 (ip), vehicle: saline",552 % of control
same,T/C,"endpoint: mean survival time, dose: 27.0 mg/kg/injection, schedule: Q04DX003 (ip), vehicle: saline",506 % of control
same,T/C,"endpoint: mean survival time, dose: 32.0 mg/kg/injection, schedule: Q01DX001 (sc), vehicle: Klucel (hydroxypropylcellulose) (HPC)",115 % of control
same,T/C,"endpoint: mean survival time, dose: 32.0 mg/kg/injection, schedule: Q01DX009 (oral), vehicle: Klucel (hydroxypropylcellulose) (HPC)",109 % of control
same,T/C,"endpoint: mean survival time, dose: 32.0 mg/kg/injection, schedule: Q03HX016 (oral), vehicle: Klucel (hydroxypropylcellulose) (HPC)",119 % of control
same,T/C,"endpoint: mean survival time, dose: 32.0 mg/kg/injection, schedule: Q04DX003 (oral), vehicle: Klucel (hydroxypropylcellulose) (HPC)",109 % of control
same,T/C,"endpoint: mean survival time, dose: 32.0 mg/kg/injection, schedule: Q08DX002 (ip), vehicle: Klucel (hydroxypropylcellulose) (HPC)",338 % of control
same,T/C,"endpoint: mean survival time, dose: 40.0 mg/kg/injection, schedule: Q03DX003 (ip), vehicle: saline",562 % of control
same,T/C,"endpoint: mean survival time, dose: 40.0 mg/kg/injection, schedule: Q04DX003 (ip), vehicle: saline",584 % of control
same,T/C,"endpoint: mean survival time, dose: 50.0 mg/kg/injection, schedule: Q01DX001 (ip), vehicle: Klucel (hydroxypropylcellulose) (HPC)",276 % of control
same,T/C,"endpoint: mean survival time, dose: 50.0 mg/kg/injection, schedule: Q01DX001 (ip), vehicle: saline",116 % of control
same,T/C,"endpoint: mean survival time, dose: 60.0 mg/kg/injection, schedule: Q03DX003 (ip), vehicle: saline",86 % of control
same,T/C,"endpoint: mean survival time, dose: 64.0 mg/kg/injection, schedule: Q01DX001 (oral), vehicle: Klucel (hydroxypropylcellulose) (HPC)",103 % of control
same,T/C,"endpoint: mean survival time, dose: 64.0 mg/kg/injection, schedule: Q01DX001 (sc), vehicle: clinical formulation",120 % of control
same,T/C,"endpoint: mean survival time, dose: 64.0 mg/kg/injection, schedule: Q03HX016 (oral), vehicle: Klucel (hydroxypropylcellulose) (HPC)",108 % of control
same,T/C,"endpoint: mean survival time, dose: 64.0 mg/kg/injection, schedule: Q04DX003 (oral), vehicle: Klucel (hydroxypropylcellulose) (HPC)",123 % of control
same,T/C,"endpoint: mean survival time, dose: 64.0 mg/kg/injection, schedule: Q08DX002 (ip), vehicle: Klucel (hydroxypropylcellulose) (HPC)",417 % of control
same,T/C,"endpoint: mean survival time, dose: 100.0 mg/kg/injection, schedule: Q01DX001 (ip), vehicle: Klucel (hydroxypropylcellulose) (HPC)",448 % of control
same,T/C,"endpoint: mean survival time, dose: 100.0 mg/kg/injection, schedule: Q01DX001 (ip), vehicle: saline",176 % of control
same,T/C,"endpoint: mean survival time, dose: 128.0 mg/kg/injection, schedule: Q01DX001 (oral), vehicle: Klucel (hydroxypropylcellulose) (HPC)",104 % of control and 106 % of control
same,T/C,"endpoint: mean survival time, dose: 128.0 mg/kg/injection, schedule: Q01DX001 (oral), vehicle: clinical formulation",109 % of control
same,T/C,"endpoint: mean survival time, dose: 128.0 mg/kg/injection, schedule: Q03HX016 (oral), vehicle: Klucel (hydroxypropylcellulose) (HPC)",118 % of control
same,T/C,"endpoint: mean survival time, dose: 128.0 mg/kg/injection, schedule: Q08DX002 (ip), vehicle: Klucel (hydroxypropylcellulose) (HPC)",119 % of control
same,T/C,"endpoint: mean survival time, dose: 256.0 mg/kg/injection, schedule: Q01DX001 (oral), vehicle: Klucel (hydroxypropylcellulose) (HPC)",104 % of control and 110 % of control
same,T/C,"endpoint: mean survival time, dose: 256.0 mg/kg/injection, schedule: Q01DX001 (oral), vehicle: clinical formulation",106 % of control
same,T/C,"endpoint: mean survival time, dose: 256.0 mg/kg/injection, schedule: Q01DX001 (sc), vehicle: Klucel (hydroxypropylcellulose) (HPC)",166 % of control
same,T/C,"endpoint: mean survival time, dose: 256.0 mg/kg/injection, schedule: Q01DX001 (sc), vehicle: clinical formulation",188 % of control
same,T/C,"endpoint: mean survival time, dose: 256.0 mg/kg/injection, schedule: Q01DX009 (oral), vehicle: Klucel (hydroxypropylcellulose) (HPC)",103 % of control
same,T/C,"endpoint: mean survival time, dose: 512.0 mg/kg/injection, schedule: Q01DX001 (oral), vehicle: Klucel (hydroxypropylcellulose) (HPC)",106 % of control and 118 % of control
same,T/C,"endpoint: mean survival time, dose: 512.0 mg/kg/injection, schedule: Q01DX001 (oral), vehicle: clinical formulation",165 % of control
same,T/C,"endpoint: mean survival time, dose: 512.0 mg/kg/injection, schedule: Q01DX009 (oral), vehicle: Klucel (hydroxypropylcellulose) (HPC)",91 % of control
same,T/C,"endpoint: mean survival time, dose: 1024.0 mg/kg/injection, schedule: Q01DX001 (oral), vehicle: Klucel (hydroxypropylcellulose) (HPC)",111 % of control
same,T/C,"endpoint: median survival time, dose: 2.0 mg/kg/injection, schedule: Q01DX009 (ip), vehicle: saline",172 % of control
same,T/C,"endpoint: median survival time, dose: 2.0 mg/kg/injection, schedule: Q01DX009 (sc), vehicle: Klucel (hydroxypropylcellulose) (HPC)",121 % of control
same,T/C,"endpoint: median survival time, dose: 4.0 mg/kg/injection, schedule: Q01DX009 (ip), vehicle: saline",188 % of control
same,T/C,"endpoint: median survival time, dose: 8.0 mg/kg/injection, schedule: Q01DX009 (ip), vehicle: saline",611 % of control
same,T/C,"endpoint: median survival time, dose: 8.0 mg/kg/injection, schedule: Q01DX009 (sc), vehicle: Klucel (hydroxypropylcellulose) (HPC)",168 % of control
same,T/C,"endpoint: median survival time, dose: 16.0 mg/kg/injection, schedule: Q01DX009 (sc), vehicle: Klucel (hydroxypropylcellulose) (HPC)",110 % of control
same,T/C,"endpoint: median survival time, dose: 32.0 mg/kg/injection, schedule: Q01DX009 (sc), vehicle: Klucel (hydroxypropylcellulose) (HPC)",89 % of control
COc1cccc(CCCCO)c1,T/C,"endpoint: mean survival time, dose: 50.0 mg/kg/injection, schedule: Q01DX009 (ip), vehicle: saline with Tween-80",91 % of control
same,T/C,"endpoint: mean survival time, dose: 100.0 mg/kg/injection, schedule: Q01DX009 (ip), vehicle: saline with Tween-80",91 % of control
